Earlier results in patent publication US6852845B1, “Method of identifying toxic agents using NSAID-induced differential gene expression in liver” (Curagen Corporation, priority 1999, dated 2005).

How the values were obtained:
[1] = tested on: liver; conditions: risk class assigned to each NSAID (low, very low, overdose risk)
[2] = tested on: liver; conditions: injury type classes of Table 5: hepatocellular damage, cholestasis, elevated transaminase level

Row | Structure (SMILES) | Hepatotoxicity Risk of NSAIDs: Risk [1] | type of hepatoxicity injury induced by the NSAID [2]
1 | CC(=O)Oc1ccccc1C(=O)O [Acetylsalicylic Acid] | Overdose Risk | –
2 | CC(C(=O)O)c1ccc2oc(-c3ccc(Cl)cc3)nc2c1 (stereo not shown) [Benoxaprofen] | Low Risk | cholestatis-inducing
3 | Nc1c(CC(=O)O)cccc1C(=O)c1ccc(Br)cc1 [Bromfenac] | Low Risk | –
4 | O=C(O)Cc1ccccc1Nc1c(Cl)cccc1Cl [Diclofenac] | Low Risk | –
5 | CCc1cccc2c3c([nH]c12)C(CC)(CC(=O)O)OCC3 (stereo not shown) [Etodolac] | Very Low Risk | –
6 | CC(C(=O)O)c1cccc(Oc2ccccc2)c1 (stereo not shown) [Fenoprofen] | Very Low Risk | –
7 | CC(C(=O)O)c1ccc(-c2ccccc2)c(F)c1 (stereo not shown) [Flurbiprofen] | Very Low Risk | hepatocellular damage
8 | COc1ccc2c(c1)c(CC(=O)O)c(C)n2C(=O)c1ccc(Cl)cc1 [Indomethacin] | Very Low Risk | –
9 | CC(C(=O)O)c1cccc(C(=O)c2ccccc2)c1 (stereo not shown) [Ketoprofen] | Very Low Risk | –
10 | Cc1ccc(Cl)c(Nc2ccccc2C(=O)O)c1Cl [Meclofenamate] | Very Low Risk | –
11 | Cc1cccc(Nc2ccccc2C(=O)O)c1C [Mefenamic Acid] | Very Low Risk | elevated transaminase level
12 | COc1ccc2cc(CCC(C)=O)ccc2c1 [Nabumetone] | Very Low Risk | cholestatis-inducing
13 | O=C(O)CCc1nc(-c2ccccc2)c(-c2ccccc2)o1 [Oxaprozin] | Very Low Risk | –
14 | CCOc1ccc(NC(C)=O)cc1 [Phenacetin] | Overdose Risk | –
15 | CCCCC1C(=O)N(c2ccccc2)N(c2ccccc2)C1=O [Phenylbutazone] | Low Risk | –
16 | CN1C(C(=O)Nc2ccccn2)=C(O)c2ccccc2S1(=O)=O [Piroxicam] | Very Low Risk | –
17 | CC1=C(CC(=O)O)c2cc(F)ccc2/C1=C\c1ccc([S+](C)[O-])cc1 (stereo not shown) [Sulindac] | Low Risk | cholestatis-inducing
18 | CC(C(=O)O)c1ccc(C(=O)c2cccs2)cc1 (stereo not shown) [Suprofen] | Very Low Risk | –
19 | CN1C(C(=O)Nc2ccccn2)=C(O)c2sccc2S1(=O)=O [Tenoxicam] | Very Low Risk | elevated transaminase level
20 | Cc1ccc(C(=O)c2ccc(CC(=O)O)n2C)cc1 [Tolmentin] | Very Low Risk | –
21 | Cc1cc(CC(=O)O)n(C)c1C(=O)c1ccc(Cl)cc1 [Zomepirac] | Very Low Risk | elevated transaminase level
